Assay results taken from the METLIN SMRT retention time set (Domingo-Almenara et al. 2019).

Assay: gradient 5% acetonitrile 3 min, to 50% in 2 min, to 85% in 15 min, held 3 min, 100 µL/min
Conditions: column: Zorbax Extend-C18 2.1 x 50 mm; eluents: water / acetonitrile, 0.1% formic acid
Procedure, shortened: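 Pure standards were run in mixtures of ~100 molecules by HPLC coupled to a quadrupole time-of-flight mass spectrometer. The column was a Zorbax Extend-C18 (2.1 × 50 mm, 1.8 μm) at 100 μL/min, with water and acetonitrile each containing 0.1% formic acid, in positive and negative ionization mode. Dead and dwell volumes were 40 μL and 900 μL. Retention time was taken from computationally picked adduct peaks, each manually inspected, with data collected over 3 months.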

| Compound | RP-LC retention time [s] |
| --- | --- |
| CCOCCCNC(=O)N1CC(Oc2ccc(-c3nc(-c4ccccc4)no3)cc2)C1 | 985 |
| COc1ccc(CCNCc2ccc3c(c2)n(C)c(=O)n3C)cc1OC | 587 |
| COc1ccc2[nH]c3c(c2c1)CCNC3c1ccc(F)cc1 (stereo not given) | 623 |
| CCN(CC)C(=O)Cn1c(C(F)(F)F)nc2cc3c(cc21)OCCO3 | 811 |
| O=C(Cc1nc(-c2ccccc2)n[nH]1)Nc1ccc(Cl)cc1 | 789 |
| CC(C)NC(=O)c1ncn2c1C(=O)N(C1CC1)C(C)(C(=O)NCc1ccc(F)cc1)C2 (stereo not given) | 673 |
| CCN(CC)CCCNC(=O)c1cc(C)nc2ccc(Br)cc12 | 585 |
| COc1ccc(-c2nc(-c3cccc(-c4ccn[nH]4)c3)no2)cc1 | 1000 |
| Cc1ccc(-c2nnc(-c3nn(C)c4c3CN(S(=O)(=O)c3cccc(F)c3)CC4)o2)cc1 | 999 |
| NS(=O)(=O)c1ccc(CCNCc2ccc(-c3ccc(F)cc3)o2)cc1 | 643 |
| Cc1ccc(S(=O)(=O)N2CCC3(CC2)NCCN=C3NCc2cc(F)cc(F)c2)cc1C | 798 |
| Cc1cccc(CN2C[C@@H]3C(=O)N(CCc4ccccc4)C(=O)[C@@H]3C2)c1 | 777 |
| CCc1noc(-c2cccn2Cc2ccc(OC)c(F)c2)n1 | 1100 |
| COc1ccc(OC)c(NC(=O)N2CCC(C)(C(=O)NCc3ccc4c(c3)OCO4)CC2)c1 | 806 |
| CCOC(=O)COc1cc(-c2ccccc2)nc2ccc(NC(=O)c3ccco3)cc12 | 743 |
| Cc1cc2c(c(=O)n(-c3ccccc3)c(=O)n2CC(=O)Nc2ccc(Br)cc2)n1C | 877 |
| COc1cccc(-c2nc(NCc3cccnc3)ncc2C(=O)O)c1 | 576 |
| CCN(CC)C(=O)c1ccc2c(c1)N(CC(=O)N1CCC(C)CC1)C(=O)C1CCCCN21 (stereo not given) | 838 |
| Cc1ccc(-c2noc(-c3ccc(N4CCN(c5ccccn5)CC4)nc3)n2)cc1 | 805 |
| CCNC(=O)c1cc2cc(Cl)ccc2[nH]1 | 806 |
| Cc1cc(C)c(NC(=O)C2CCN(S(C)(=O)=O)c3ccccc3O2)c(C)c1 (stereo not given) | 900 |
| CCOC(=O)Cc1c(C)nc2c(-c3ccccc3)cnn2c1C | 1000 |

| Compound | RP-LC retention time [s] |
| --- | --- |
| CC1(C(=O)Oc2ccc(Cl)cc2)Cc2ccccc2C(=O)O1 (stereo not given) | 942 |
| COc1ccc(C)cc1NC(=O)NCCNC(=O)c1ccc(NC(=O)C2CCCC2)cc1 | 759 |
| CC(C)NC(=O)CSc1nnc(CNC(=O)c2ccc(S(=O)(=O)N(C)C)cc2)o1 | 625 |
| Cc1ccc(NC(=O)Cn2c(=O)n(-c3ccc(F)cc3)c(=O)c3c2cc(C)n3C)cc1F | 882 |
| COc1cccc(NC(=O)c2cc(C(C)C)n3nccc3n2)c1 | 1070 |
| Cc1cc(-c2nnc(-c3ccc(F)cc3)o2)c(C)n1CC(=O)NCc1ccccc1F | 950 |
| COc1cc(C(=O)NCCNc2cc(-n3cccn3)ncn2)cc(OC)c1OC | 631 |
| CC(NC(=O)c1nnc(-c2ccc(S(=O)(=O)N(C)C)cc2)o1)c1ccccn1 (stereo not given) | 683 |
| CCc1noc(NC(C)=O)c1-c1ccc(C)c(S(=O)(=O)NCc2ccc(F)cc2)c1 | 814 |
| O=C(CN1C(=O)CCC1=O)Nc1nnc(-c2ccc(Cl)s2)o1 | 642 |
| CCN(CC)CCCNc1ccc(-c2nc(-c3cccc(F)c3)no2)cn1 | 707 |
| Cc1cc(C(=O)Nc2cccc(F)c2)nc2ccnn12 | 889 |
| Cc1nccn1Cc1nc(-c2ccccc2Cl)no1 | 624 |
| COc1cc(OC)c(NC(=O)Cc2nnc(-c3cnccn3)o2)cc1Cl | 647 |
| COc1cccc(S(=O)(=O)NCc2cccnc2-c2ccc(C)cc2)c1 | 695 |
| CS(=O)(=O)N(C1CCOCC1)C1CN(C(=O)NCCc2ccccc2)C1 | 684 |
| N#Cc1cnn2ccn(C3OC(CO)C(O)C3O)c12 (stereo not given) | 614 |
| O=C1[C@H]2CN(Cc3cc(Br)ccc3F)C[C@H]2C(=O)N1CCc1ccccc1 | 1030 |
| CCn1c(=O)oc2cc(-c3noc(-c4cc(Cl)ccc4F)n3)ccc21 | 1180 |
| CCOc1ccc(-c2csc3c(=O)n(Cc4cccc(Br)c4)cnc23)cc1OCC | 1210 |
| CCc1nnc2ccc(-c3noc(Cc4cc(OC)cc(OC)c4)n3)cn12 | 844 |
| CC(=O)Nc1cccc(-c2nc(-c3ccc4c(c3)oc(=O)n4C)no2)c1 | 819 |

The next lines start with the values.

| RP-LC retention time [s] | Compound |
| --- | --- |
| 809 | O=C(N[C@H]1C[C@@H]2C[C@H]1CN2C(=O)c1cccc(C(F)(F)F)c1)c1ccccc1 |
| 735 | Cc1ccc(F)c(NC(=O)C2CCc3nc(N4CCOCC4)ncc3C2)c1 (stereo not given) |
| 970 | CC(C)c1nc(N2CCCC2=O)sc1C(=O)NCc1ccc(F)cc1 |
| 583 | CS(=O)(=O)N1CCc2cc(C(=O)N3CCC(C(N)=O)CC3)ccc21 |
| 860 | O=C(CCn1nnc2cc(-c3noc(Cc4ccc(F)cc4)n3)ccc21)N1CCCC1 |
| 789 | Cc1ccc2cccc(OC(=O)N3CCCCCC3)c2n1 |
| 985 | COc1ccc(Cl)cc1NC(=O)Cc1csc2nc(-c3ccc(C)c(C)c3)cn12 |
| 1030 | Cc1c(C(=O)N2CCCC2)cnn1-c1cc(-c2nc(C(C)(C)C)no2)ccn1 |
| 903 | CCc1nc(-c2csc(S(=O)(=O)N3CCC(C(=O)N4CCCCC4)CC3)c2)no1 |
| 612 | O=C(O)c1nnn(-c2ccccc2F)c1-c1cccnc1 |
| 935 | O=C(c1nc(-c2cccs2)cs1)N1CCCC1 |
| 834 | Cc1ccc(Cl)cc1NC(=O)C1CCN(S(=O)(=O)c2ccc3c(c2)NC(=O)C(C)O3)CC1 (stereo not given) |
| 579 | O=C(NC1CCN(Cc2ccccc2)CC1)c1ccc2c(=O)n3c(nc2c1)CCCC3 |
| 768 | O=C(NC1CC1)C1CCN(c2nc3ccsc3c(=O)n2Cc2ccc(F)cc2)CC1 |
| 765 | O=C(Nc1cc(-c2ccccn2)no1)C1CCCC1 |
| 734 | O=C(NCC1Cn2cccc2C(=O)N1Cc1ccccc1)NC1CCCC1 (stereo not given) |
| 734 | Cn1nc(C(=O)N2CC(n3cc(C(=O)NCC4CC4)nn3)C2)c2ccccc21 |
| 782 | O=C(c1cnccn1)N1CCCC1c1nc(-c2ccc(F)cc2F)no1 (stereo not given) |
| 659 | CCN1CCN(C(=O)Nc2ccc(Br)cc2F)c2cccnc21 |
| 656 | CCN1CCC(N(Cc2ccc3c(c2)OCO3)C(=O)Nc2ccc(F)cc2)CC1 |
| 626 | COc1ccc(NC(=O)NC2CCN(c3cc(N4CCCC4)cnn3)C2)c(C)c1 (stereo not given) |
| 1070 | CCc1ccc(C(=O)Nc2cnn(CC)c(=O)c2N2CCOCC2)cc1 |
| 922 | CC(C)n1nccc1-c1csc(S(=O)(=O)N2CCC3(CC2)OCCO3)c1 |

| RP-LC retention time [s] | Compound |
| --- | --- |
| 894 | O=C(NCc1cccnc1-c1ccc(F)cc1)c1cccs1 |
| 690 | O=C(NCCc1csc(C2CCN(C(=O)C3CCCC3)CC2)n1)C1CC1 |
| 819 | NC(=O)[C@H]1CCCCc2c1[nH]c1ccc(Cl)cc21 |
| 699 | CCC(=O)N1CCc2cc(N3CC(C(=O)NCc4ccccc4)CC3=O)ccc21 (stereo not given) |
| 556 | Cc1ccc2c(C(=O)N3CCN(C4CCCCC4)CC3)cc(NC(=O)C3CCC3)cc2n1 |
| 740 | O=C(NCCc1csc(-c2cccs2)n1)C1CCN(C(=O)c2ccccc2)CC1 |
| 556 | CC(C)CN(C1CCOCC1)C1CN(C(=O)c2cnccn2)C1 |
| 785 | O=C1NC2(CCN(C(=O)Cc3cccc(F)c3)CC2)Nc2c(Cl)cccc21 |
| 654 | Cc1oc(C2CCN(C(=O)c3ccc(C#N)cc3)CC2)nc1C(=O)N(C)C |
| 651 | CCOC(=O)C1CCN(C(=O)C2CCN(c3cncnc3N3CCCCC3)CC2)CC1 |
| 1110 | CCCc1noc(C2CCCCN2CC(=O)Nc2ccc(F)c(Cl)c2)n1 (stereo not given) |
| 881 | Cc1c(N2CCN(C(=O)C3CCCCC3)CC2)c(=O)n(C)c(=O)n1-c1ccccc1 |
| 684 | CCCNC(=O)C1CCCN(c2nc3ncn(CC(=O)Nc4ccc(F)cc4F)c(=O)c3s2)C1 (stereo not given) |
| 820 | O=C(NC1CCCCCC1)C1CCN(S(=O)(=O)c2cc(C(=O)N3CCCC3)cs2)CC1 |
| 704 | Cn1nccc1C(=O)N1CCC(NS(=O)(=O)c2ccc(Cl)cc2)CC1 |
| 698 | CCOC(=O)c1c(C)oc2ncnc(NCC3CCN(Cc4ccc(F)cc4)CC3)c12 |
| 1010 | Cc1nn(-c2ccccc2)c(C)c1S(=O)(=O)N1CCC(C(=O)NC2CCCc3ccccc32)CC1 (stereo not given) |
| 791 | Cc1cc(C(=O)N2CCCn3nc(-c4cccs4)cc3C2)no1 |
| 730 | CCOC(=O)c1nc2cc(C)c(C)cc2nc1N1CCN(c2ccccn2)CC1 |
| 1110 | Cc1cccc(NC(=O)CSc2cc(N3CCN(c4ccccc4F)CC3)ncn2)c1 |
| 651 | O=C(NCc1ccco1)c1cn(-c2cc(N3CCOCC3)ncn2)cn1 |
| 1000 | CC1CCN(S(=O)(=O)c2cccc(-c3cn4cc(Cl)ccc4n3)c2)CC1 |
| 725 | CCOc1ccccc1NC(=O)N1CCCC(Cn2c(C3CC3)nc3cccnc32)C1 (stereo not given) |
